Test results reported in patent US20090081153A1, “COMBINATION OF SYNTHETIC ANTIMICROBIAL POLYMERS AND SESQUITERPENOID COMPOUNDS” (POLYMEDIX, INC., priority 2007, published 2009).

Columns and labels:
E. coli = experiment: Antimicrobial disc assay against E. coli; type: cell-based; conditions: another assay, comparison with traditional antibiotics; results not shown
E. coli ATCC 25922 = experiment: Inactivation kinetics, E. coli ATCC 25922 viability; type: cell-based; conditions: Compound C 31.25 μg/ml, Nerolidol 200 μM
Text: The surviving cell numbers (log10) were plotted against time for each treatment. The average slopes were obtained using linear regression analysis and were used to calculate D-values for each treatment using D=−1/slope.

## CN[C@H](CC(C)C)C(=O)N[C@H]1C(=O)N[C@@H](CC(N)=O)C(=O)N[C@H]2C(=O)N[C@H]3C(=O)N[C@H](C(=O)N[C@H](C(=O)O)c4cc(O)cc(O)c4-c4cc3ccc4O)[C@H](O)c3ccc(c(Cl)c3)Oc3cc2cc(c3O[C@@H]2O[C@H](CO)[C@@H](O)[C@H](O)[C@H]2O[C@H]2C[C@](C)(N)[C@H](O)[C@H](C)O2)Oc2ccc(cc2Cl)[C@H]1O [vancomycin]
E. coli
  Impact of sesquiterpenoids on activity against E. coli: no impact

## C=CC(C)(O)CCC=C(C)CCC=C(C)C (mixture of isomers) [Nerolidol, nerolidol]
E. coli ATCC 25922; D=−1/slope of log10 survivors vs time
  D-value (Decimal log reduction time): 260.80 min
E. coli ATCC 25922; Time 0 min
  Surviving cell numbers: 8.83 log10
E. coli ATCC 25922; Time 5 min
  Surviving cell numbers: 8.80 log10
E. coli ATCC 25922; Time 10 min
  Surviving cell numbers: 8.79 log10
E. coli ATCC 25922; Time 15 min
  Surviving cell numbers: 8.79 log10
E. coli ATCC 25922; Time 30 min
  Surviving cell numbers: 8.77 log10

## gentamicin
E. coli
  Impact of sesquiterpenoids on activity against E. coli: no impact
